Measurements published in ChEMBL document CHEMBL1201862, “PubChem BioAssay data set” (2004).
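The compound was tested at five concentrations on cells cultured in 96-well plates, with a 48-hour exposure period. GI50 = concentration required for 50% inhibition of growth.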 Calls of active or inactive are those of the source. Cut-off read from the data, not from the text of the source: active = GI50 up to about 1.1 µM and inactive = higher.

How the values were obtained:
Assay in all cases: NCI anticancer screen, dose series, 48 h
A498 = tested on: A498
DU-145 = tested on: DU-145
HCT-116 = tested on: HCT-116
Hs-578T = tested on: Hs-578T
LOX IMVI = tested on: LOX IMVI
Malme-3M = tested on: Malme-3M
NCI-H23 = tested on: NCI-H23
NCI-H460 = tested on: NCI-H460
NCI/ADR-RES = tested on: NCI/ADR-RES
OVCAR-4 = tested on: OVCAR-4
PC-3 = tested on: PC-3
SF-295 = tested on: SF-295
SF-539 = tested on: SF-539
SK-MEL-2 = tested on: SK-MEL-2
SN12C = tested on: SN12C
SNB-19 = tested on: SNB-19
U-251 = tested on: U-251
UACC-62 = tested on: UACC-62
UO-31 = tested on: UO-31
EKVX = tested on: EKVX

Measured: GI50

N#Cc1cc2c(n(C3OC(CO)C(O)C(O)C3O)c1=S)CCCCC2 (centres undefined)
inactive: A498 > 100 µM | DU-145 > 100 µM | HCT-116 > 100 µM | Hs-578T > 100 µM | LOX IMVI > 100 µM | Malme-3M > 100 µM | NCI-H23 > 100 µM | NCI-H460 > 100 µM | NCI/ADR-RES > 100 µM | OVCAR-4 > 100 µM | PC-3 > 100 µM | SF-295 > 100 µM | SF-539 > 100 µM | SK-MEL-2 > 100 µM | SN12C > 100 µM | SNB-19 > 100 µM | U-251 > 100 µM | UACC-62 > 100 µM | UO-31 > 100 µM

N/N=C(/CC(O)(C(F)(F)F)C(F)(F)F)c1ccccc1
inactive: A498 > 10 µM | DU-145 > 10 µM | EKVX > 10 µM | HCT-116 > 10 µM | Hs-578T > 10 µM | LOX IMVI > 10 µM | Malme-3M > 10 µM | NCI-H23 > 10 µM | NCI-H460 > 10 µM | NCI/ADR-RES > 10 µM | OVCAR-4 > 10 µM | PC-3 > 10 µM | SF-295 > 10 µM | SF-539 > 10 µM | SK-MEL-2 > 10 µM | SN12C > 10 µM | SNB-19 > 10 µM | U-251 > 10 µM | UACC-62 > 10 µM

CCOc1cc2c(cc1OC(C)=O)C(=O)CC[C@H]1C3CC[C@H](OC(C)=O)[C@@]3(C)CC[C@H]21 (some centres undefined)
inactive: A498 > 100 µM | DU-145 > 100 µM | EKVX > 100 µM | HCT-116 > 100 µM | Hs-578T > 100 µM | LOX IMVI > 100 µM | Malme-3M > 100 µM | NCI-H23 > 100 µM | NCI-H460 > 100 µM | NCI/ADR-RES > 100 µM | OVCAR-4 > 100 µM | PC-3 > 100 µM | SF-295 > 100 µM | SF-539 > 100 µM | SK-MEL-2 > 100 µM | SNB-19 > 100 µM | U-251 > 100 µM | UACC-62 > 100 µM | UO-31 > 100 µM

ClCCN1CCC2(CC1)SSC1(CCN(CCCl)CC1)S2
inactive: A498 63.4 µM | DU-145 37.2 µM | HCT-116 45.9 µM | Hs-578T 45.1 µM | LOX IMVI 31.8 µM | Malme-3M 29.2 µM | NCI-H23 49.7 µM | NCI-H460 29.3 µM | NCI/ADR-RES 49.7 µM | OVCAR-4 35.2 µM | PC-3 30.1 µM | SF-295 29.4 µM | SF-539 20.6 µM | SK-MEL-2 > 100 µM | SN12C 26.2 µM | SNB-19 48 µM | U-251 42.1 µM | UACC-62 20.8 µM | UO-31 65.6 µM

c1ccc([I+]c2ccccc2)cc1
inactive: A498 > 100 µM | DU-145 > 100 µM | EKVX > 100 µM | HCT-116 > 100 µM | Hs-578T > 100 µM | LOX IMVI > 100 µM | Malme-3M > 100 µM | NCI-H23 > 100 µM | NCI-H460 > 100 µM | NCI/ADR-RES > 100 µM | OVCAR-4 > 100 µM | PC-3 > 100 µM | SF-295 > 100 µM | SF-539 > 100 µM | SK-MEL-2 > 100 µM | SN12C > 100 µM | SNB-19 > 100 µM | U-251 > 100 µM | UO-31 > 100 µM

Clc1cccc(Cl)c1/C=N/C12CC3CC(CC(C3)C1)C2
inactive: A498 > 10 µM | DU-145 > 10 µM | EKVX > 10 µM | HCT-116 > 10 µM | Hs-578T > 10 µM | LOX IMVI > 10 µM | Malme-3M > 10 µM | NCI-H23 > 10 µM | NCI-H460 > 10 µM | NCI/ADR-RES > 10 µM | OVCAR-4 > 10 µM | PC-3 > 10 µM | SF-295 > 10 µM | SF-539 > 10 µM | SK-MEL-2 > 10 µM | SN12C > 10 µM | SNB-19 > 10 µM | U-251 > 10 µM | UACC-62 > 10 µM
